Reference: US20080008745A1, “Transdermal delivery of naltrexone hydrochloride, naltrexol hydrochloride, and bis(hydroxy-methyl)propionyl-3-0 ester naltrexone using microneedles” (UNIVERSITY OF KENTUCKY RESEARCH FOUNDATION, priority 2006, published 2008)
Values after ≈ are worked out from the molar mass of the structure shown. Where a name gives a salt, the structure may show the parent alone. Read-outs that look alike come from different tables or passages of the source.

Assays:
[1] = In vivo pharmacokinetics in hairless guinea pigs, gel with or without microneedles; design: species or system hairless guinea pig
Method: In vivo studies of hairless guinea pigs were performed in order to obtain pharmacokinetic parameters for guinea pigs treated with 26 mg Naltrexol base gel, MN application followed by 26 mg Naltrexol base gel, 285 mg Naltrexol HCl gel and MN application followed by 285 mg Naltrexol HCl. The base was saturated in gel whereas the hydrochloride salt remained soluble in solution.

[2] = In vitro skin diffusion study, flow-through diffusion cell, guinea pig skin
Method: Hairless guinea pig skin was harvested from euthanitized animals. Animal studies were approved by the University of Kentucky IACUC. Human skin harvested during abdominoplasty was used for the diffusion studies. Human tissue use was approved by the University of Kentucky Institutional Review Board. Skin sections were obtained by removing the subcutaneous fatty tissue by scalpel dissection and stored at −20° C. A PermeGear flow-through (In-Line, Riegelsville, Pa.) diffusion cell system was used for the skin permeation studies. Skin used for microneedle treatment was placed on a wafer of polydimethylsiloxane polymer, which mimicked the underlying resistance of tissue. The skin was poked 20 times with an array containing 5 MN before mounting the skin in the diffusion cell. Untreated skin samples were simply placed in the diffusion cells. Diffusion cells were kept at 32° C. with a circulating water bath. Data was collected by using skin from a single donor with three cells for untreated formulations and three to four cells for the MN treated formulations. The receiver solution was HEPES-buffered Hanks' balanced salts with gentamicin at pH 7.4, and the flow rate was adjusted to 1.1 mL/h. Each cell was charged with 0.25 mL of the respective drug solution. […] All samples were stored at 4° C. until processed by solid phase extraction.
The cumulative quantity of drug collected in the receiver compartment was plotted as a function of time. The flux value for a given experiment was obtained from the slope of the steady state portion of the cumulative amount of drug permeated, plotted over time. Apparent permeability coefficient values were calculated from Fick's First Law of diffusion: [formula]
Sink conditions were maintained in the receiver solution for the duration of the experiment, so ΔC was approximated by the drug concentration in the donor compartment.
The HPLC analysis was performed as described by Vaddi et al., Pharm. Res. 22 (2005) 758-765. The HPLC system consisted of a Waters 717plus autosampler, a Waters 1525 Binary HPLC pump, and a Waters 2487 Dual λ Absorbance detector with Waters Breeze software. A Brownlee C-18 reversed-phase Spheri-5 μm column (220×4.6 mm) with a C-18 reversed phase 7 μm guard column (15×3.2 mm) was used with the UV detector set at a wavelength of 215 nm. […] The mobile phase for Naltrexol consisted of 90:10 ACN:0.1% TFA adjusted to pH 3.0 with TEA. Samples were run for 10 min at 1 mL/min as described by Paudel et al., J. Pharm. Sci. 94 (2005) 1965-1975). One hundred microliters of sample was injected onto the column for both Naltrexone and Naltrexol. Samples were analyzed within the linear range of the standard curves.
The drugs were extracted from the buffer samples by solid phase extraction (30mg 1 cc Oasis® HLB, Waters Corp., Milford, Mass.) as described by Vaddi et al., Pharm. Res. 22 (2005) 758-765.
Before extracting the aqueous drug samples (5 mL), the cartridge was conditioned with 1 mL of methanol and 1 mL of nanopure water. After sample loading, the cartridge was washed with 1 mL of 5% methanol and the drug was eluted with ACN and analyzed by HPLC. A similar extraction method was employed for Naltrexol, except 2 mL of methanol was used in conditioning and 1 mL of nanopure water was also used to further wash the samples after being loaded onto the cartridge. The Naltrexol was eluted with 2 mL of isopropanol and finally with 1 mL ACN. Naltrexol samples were evaporated under nitrogen in a water bath maintained at 37° C. The samples were then reconstituted with 1 mL of ACN for HPLC analysis. Highly concentrated samples of Naltrexone and Naltrexol were further diluted 10 times in ACN.
The data obtained from the diffusion experiments were plotted as the cumulative amount of drug collected in the receiver compartment as a function of time.

[3] = Solubility in 3:1 PG:Hanks' buffer; assay type: physicochemical; conditions: for Solubility in 3:1 PG:Hanks Buffer: 32° C., 24 h
Method: An excess of Naltrexone HCl (˜350 mg) was added to 1 mL of 3:1 PG:Hanks' buffer. The saturated solution was then vortexed for 1 min, sonicated for 15 min, and placed in an incubator at 32° C. for 24 h while shaking on a belly shaker. Just before filtering, a glass syringe and 0.45 μm filter were heated in an incubator to 32° C. The solution was filtered and diluted with ACN for high pressure liquid chromatography (HPLC) analysis.

[4] = In vitro skin diffusion study, flow-through diffusion cell, human skin; assay type: in vitro ADME; conditions: for Lag time / NTX Flux: Human skin; for Papp at 48 h: human
[5] = cited from earlier work
[6] = Solubility or concentration of Naltrexol base in 3:1 H2O:PG after pH adjustment; assay type: physicochemical; conditions: for Solubility in 3:1 H2O:PG: pH adjusted; for Concentration in 3:1 H2O:PG: concentration of drug in solution, freely soluble in the ionized form
Method: 100 mg of Naltrexol base was prepared in 3:1 H2O:PG. The solution was briefly vortexed and sonicated for 10 min. To obtain a mixture of pH 8.5 Naltrexol base, 0.5 N sodium hydroxide was added incrementally. The same procedure was performed to obtain a pH 4.5 solution, except 0.5 M HCl was added dropwise. […] The solution was saturated with excess solid when the pH was raised above the first pKa (7.4) of Naltrexol base.

[7] = human skin, passive diffusion without MN (Paudel et al.); cited from earlier work
[8] = MN application followed by gel (26 mg base or 285 mg HCl)
[9] = no MN, gel (26 mg Naltrexol base or 285 mg Naltrexol HCl)
[10] = MN Treated GP skin, 100 mg/ml Naltrexone base equivalent in 3:1 PG:water, 48 hours
[11] = GP skin, No MN, High Dose, 3:1 H2O:PG
[12] = No MN GP skin, listed as Naltrexone base
[13] = GP skin, MN Treated, High Dose, listed as Naltrexol pH 4.5

Cl.Oc1ccc2c3c1O[C@H]1[C@H](O)CC[C@@]4(O)[C@@H](C2)N(CC2CC2)CC[C@]314 [NTXOL HCl, Naltrexol Hydrochloride]
Plasma concentrations compared to no microneedles and Naltrexol base ([1]; MN and gel therapy, FIG. 8): markedly higher
AUC [1, 8]: 1349 ± 616 ng·h/mL
Cmax [1, 8]: 48.5 ± 18.8 ng/mL
Css [1, 8]: 21.3 ± 6.9 ng/mL
Tlag [1, 8]: 0.7 ± 0.3 h
Tmax [1, 8]: 19.2 ± 11.5 h
AUC [1, 9]: 24.4 ng·h/mL
Cmax [1, 9]: 4.1 ng/mL
Css [1, 9]: 1.8 ± 1.68 ng/mL
Tlag [1, 9]: 1 h
Tmax [1, 9]: 7.0 h
Flux ([2]; MN treated skin, earlier experiment): 36.12±1.77 nmol/cm^2/h
Flux ([2]; untreated skin, earlier experiment): 2.75±1.38 nmol/cm^2/h

O=C1CC[C@@]2(O)[C@H]3Cc4ccc(O)c5c4[C@@]2(CCN3CC2CC2)[C@H]1O5 [NTX-HCl, Naltrexone Hydrochloride]
Flux enhancement by MN treatment ([2]; GP skin, MN vs untreated): 10 fold
NTX Flux ([2]; MN GP skin, 3:1 PG:Hanks' buffer, Hydrochloride): 27.16 ± 4.57 nmol/cm^2/h
NTX Flux ([2]; MN GP skin, 3:1 PG:Hanks' buffer, listed as Naltrexone HCl, Hydrochloride): 27.16±4.57 nmol/cm^2/h
Lag time ([2]; MN GP skin, Hydrochloride): 2.41 ± 3.85 h
Lag time ([2]; MN GP skin, listed as Naltrexone HCl, Hydrochloride): 2.41 ± 3.85 h
Lag time ([2]; No MN GP skin, Hydrochloride): 22.38 ± 7.68 h
NTX Flux ([2]; No MN GP skin, Hydrochloride): 2.71 ± 1.20 nmol/cm^2/h
Lag time ([2]; No MN GP skin, listed as Naltrexone HCl, Hydrochloride): 22.38 ± 7.68 h
Solubility in 3:1 PG:Hanks Buffer ([3]; Hydrochloride): 794.4 mM
Maximum daily dose (calculated from Eq. 2) ([4]; 10 cm^2 patch, MN-treated human skin, highest concentration measured): 5.0 mg
Lag time ([4]; MN): 12.06 ± 4.32 h
NTX Flux ([4]; MN): 18.54 ± 4.38 nmol/cm^2/h
Lag time ([4]; No MN): 23.66 ± 2.74 h
NTX Flux ([4]; No MN): 2.22 ± 0.72 nmol/cm^2/h
Flux enhancement by MN treatment ([4]; human skin, MN vs untreated, p<0.05): 8 fold
Papp at 48 h ([4]; pH 7.4, Human skin, MN, read-out: Permeability (converted)): 0.0194 ×10⁻⁶ cm/s
Papp at 48 h ([4]; pH 7.4, Human skin, No MN, read-out: Permeability (converted)): 0.00233 ×10⁻⁶ cm/s
Permeability Kp (estimated) ([4]; microneedle-treated human skin): 0.0194 ×10⁻⁶ cm/s

CC(CO)(CO)C(=O)Oc1ccc2c3c1OC1C(=O)CCC4(O)C(C2)N(CC2CC2)CCC314 (centres unmarked) [NTX-Diol ester, bis(hydroxymethyl)propionyl-3-O-ester naltrexone]
Flux [2, 10]: 71.98 ± 26.38 nmol/cm^2/h
Lag time [2, 10]: 10.33 ± 7.95 h
Flux level relative to Naltrexone HCl with MN treatment ([2]; MN treated GP skin): approximately twice

Oc1ccc2c3c1O[C@H]1[C@H](O)CC[C@@]4(O)[C@@H](C2)N(CC2CC2)CC[C@]314 [NTXOL Base, 6-β-Naltrexol]
AUC [1, 8]: 303.1 ng·h/mL
Cmax [1, 8]: 8.5 ng/mL
Css [1, 8]: 5.04 ± 2.57 ng/mL
Tlag [1, 8]: 0.7 h
Tmax [1, 8]: 0.7 h
AUC [1, 9]: 50.5 ± 10.1 ng·h/mL
Cmax [1, 9]: 1.7 ± 0.5 ng/mL
Css [1, 9]: 0.95 ± 0.41 ng/mL
Tlag [1, 9]: 5.2 ± 1.6 h
Tmax [1, 9]: 40.1 ± 11.7 h
first pKa [5]: 7.4

Oc1ccc2c3c1O[C@H]1[C@H](O)CC[C@@]4(O)[C@@H](C2)N(CC2CC2)CC[C@]314 [NTXOL Base pH 8.5, 6-β-Naltrexol]
Lag time ([2]; GP skin, MN Treated, High Dose): 17.53 ± 6.56 h
NTXOL Flux ([2]; GP skin, MN Treated, High Dose): 4.79 ± 2.62 nmol/cm^2/h
Lag time ([2]; GP skin, MN Treated, Low Dose): 15.67 ± 6.96 h
NTXOL Flux ([2]; GP skin, MN Treated, Low Dose): 15.19 ± 7.33 nmol/cm^2/h
Lag time ([2]; GP skin, No MN, High Dose): 24.34 ± 5.17 h
NTXOL Flux [2, 11]: 1.36 ± 0.91 nmol/cm^2/h
Lag time ([2]; GP skin, No MN, High Dose, listed as Naltrexol pH 8.5): 24.34 ± 5.17 h
Lag time ([2]; GP skin, No MN, Low Dose): 25.37 ± 1.10 h
NTXOL Flux ([2]; GP skin, No MN, Low Dose): 8.77 ± 4.08 nmol/cm^2/h
Solubility in 3:1 H2O:PG [6]: 2.69 mM (≈ 924 µg/mL)
Solubility in 3:1 H2O:PG ([6]; listed as Naltrexol base at pH 8.5): 2.92 mM (≈ 1000 µg/mL)

O=C1CC[C@@]2(O)[C@H]3Cc4ccc(O)c5c4[C@@]2(CCN3CC2CC2)[C@H]1O5 [NTX Base, Naltrexone]
Lag time ([2]; MN GP skin): 18.91 ± 4.49 h
NTX Flux ([2]; MN GP skin, 3:1 PG:Hanks' buffer): 11.80 ± 5.02 nmol/cm^2/h
NTX Flux ([2]; MN GP skin, 3:1 PG:Hanks' buffer, listed as Naltrexone base): 11.80±5.02 nmol/cm^2/h
Lag time ([2]; MN GP skin, listed as Naltrexone base): 18.91 ± 4.49 h
Lag time ([2]; No MN GP skin): 21.22 ± 3.91 h
NTX Flux ([2]; No MN GP skin): 9.94 ± 2.75 nmol/cm^2/h
Lag time [2, 12]: 21.22 ± 3.91 h
NTX Flux [2, 12]: 9.94±2.75 nmol/cm^2/h
solubility at 24 h ([3]; 3:1 PG:Hanks' buffer, 32 °C, aqueous with cosolvent or surfactant or cyclodextrin, thermodynamic from solid, Eq. 2, read-out: Solubility S used for theoretical dosing): 300 mg/mL (≈ 879 mM)
Solubility in 3:1 PG:Hanks Buffer ([3]; listed as Naltrexone base): 43.6 mM (≈ 14900 µg/mL)
Maximum daily dose ([4]; 10 cm^2 patch, passive diffusion without MN, at solubility limit): 0.4 mg
Papp at 48 h ([4]; pH 7.4, microneedle-treated human skin, read-out: Permeability Kp (estimated) (converted)): 0.0194 ×10⁻⁶ cm/s
Permeability [7]: 0.03 ×10⁻⁶ cm/s

Oc1ccc2c3c1O[C@H]1[C@H](O)CC[C@@]4(O)[C@@H](C2)N(CC2CC2)CC[C@]314 [NTXOL Base pH 4.5, 6-β-Naltrexol]
Lag time ([2]; GP skin, MN Treated, High Dose): 6.58 ± 5.02 h
NTXOL Flux ([2]; GP skin, MN Treated, High Dose): 35.07 ± 8.18 nmol/cm^2/h
Lag time [2, 13]: 6.58 ± 5.02 h
NTXOL Flux [2, 13]: 35.07±8.18 nmol/cm^2/h
Lag time ([2]; GP skin, MN Treated, Low Dose): 10.33 ± 7.95 h
NTXOL Flux ([2]; GP skin, MN Treated, Low Dose): 71.98 ± 26.38 nmol/cm^2/h
Lag time ([2]; GP skin, No MN, High Dose): 25.97 ± 5.50 h
NTXOL Flux [2, 11]: 6.56 ± 6.49 nmol/cm^2/h
Lag time ([2]; GP skin, No MN, High Dose, listed as Naltrexol pH 4.5): 25.97 ± 5.50 h
Lag time ([2]; GP skin, No MN, Low Dose): 27.18 ± 1.31 h
NTXOL Flux ([2]; GP skin, No MN, Low Dose): 11.50 ± 4.20 nmol/cm^2/h
Flux enhancement relative to Naltrexone HCl ([2]; MN treated GP skin): 1.3 fold
Concentration in 3:1 H2O:PG ([6]; High Dose): **292.40 mM
Concentration in 3:1 H2O:PG ([6]; Low Dose): **76.02 mM
